pIC50: −log10 of the molar value.
These molecules were tested against T1, P2X7 receptor (Homo sapiens, UniProt Q99572) (assay: IL-1β release assay in differentiated THP-1 cells stimulated with BzATP (Example 9); % inhibition and IC50). Settings: THP-1 cells differentiated with LPS and IFN-γ, 30 min pretreatment, BzATP 250 uM, IL-1β by ELISA.
T1 construct: host or cells: THP-1 cells differentiated with LPS and IFN-γ
T1 sequence (Q99572 1-595): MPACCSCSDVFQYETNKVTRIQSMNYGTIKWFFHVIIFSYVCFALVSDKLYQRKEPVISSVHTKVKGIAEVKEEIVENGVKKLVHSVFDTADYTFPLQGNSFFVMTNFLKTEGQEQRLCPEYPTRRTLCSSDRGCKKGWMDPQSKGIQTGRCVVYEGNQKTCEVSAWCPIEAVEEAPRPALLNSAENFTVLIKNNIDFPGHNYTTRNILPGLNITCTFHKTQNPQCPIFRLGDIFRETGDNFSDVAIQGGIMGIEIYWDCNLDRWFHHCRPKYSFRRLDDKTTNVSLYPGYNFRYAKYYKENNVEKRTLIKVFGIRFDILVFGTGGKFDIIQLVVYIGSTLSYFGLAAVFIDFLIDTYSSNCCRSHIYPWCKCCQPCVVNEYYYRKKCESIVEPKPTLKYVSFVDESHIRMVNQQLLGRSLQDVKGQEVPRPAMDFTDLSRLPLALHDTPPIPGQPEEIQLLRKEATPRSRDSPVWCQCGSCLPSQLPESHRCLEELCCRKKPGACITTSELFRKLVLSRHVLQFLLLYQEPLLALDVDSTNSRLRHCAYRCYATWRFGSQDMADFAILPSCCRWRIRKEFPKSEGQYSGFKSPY
Format: cell-based
Protocol: The cells are then pretreated for 30 minutes with the compound of interest at the appropriate concentration in RPMI media containing 100 IU/mL penicillin, 100 ug/mL streptomycin. […] 30 uL of cell supernatant is then collected and IL-1β levels determined via ELISA (R&D systems Cat. # HSLB50) according to manufacturer's recommendations using the Tecan Safire plate reader. Background adjusted IL-1β levels of drug treated and non-treated cells are used to calculate the percent inhibition.
The compounds set forth in Table 1 were tested for activity in a cellular model as described herein.

| pIC50 | SMILES |
| --- | --- |
| 7.56 | O=C(Cc1ccc(Cl)c(C(F)(F)F)c1)Nc1cccc2c(=O)n(C(CO)CO)ccc12 [Compound 81, 2-(4-Chloro-3-trifluoromethyl-phenyl)-N-[2-(2-hydroxy-1-hydroxymethyl-ethyl)-1-oxo-1,2-dihydro-isoquinolin-5-yl]-acetamide] |
| 7.83 | O=C(Cc1ccc(C(F)(F)F)c(F)c1)Nc1cccc2c(=O)n(CCO)ccc12 [Compound 357] |
| 7.43 | CNC(=O)[C@@H](CO)n1ccc2c(NC(=O)C(C)c3ccc(Cl)c(Cl)c3)cccc2c1=O (stereo partly drawn) [Compound 270, (R)-2-{5-[2-(3,4-Dichloro-phenyl)-propionylamino]-1-oxo-1H-isoquinolin-2-yl}-3-hydroxy-N-methyl-propionamide] |
| 7.84 | C[C@H](CO)n1ccc2c(NC(=O)Cc3ccc(C(F)(F)F)cc3C(F)(F)F)cccc2c1=O [Compound 361] |
| 6.91 | C[C@H](C(=O)Nc1cccc2c(=O)n([C@@H](C)CO)ccc12)c1ccc(Cl)c(Cl)c1 [Compound 326] |
| 6.69 | C[C@H](CO)n1ccc2c(NC(=O)Cc3ccc(F)c(Cl)c3)cccc2c1=O [Compound 329] |
| 7.49 | Cc1ccc(CC(=O)Nc2cccc3c(=O)n([C@H](C)C(N)=O)ccc23)cc1F [Compound 302] |
| 7.68 | C[C@@H](C(N)=O)n1ccc2c(NC(=O)Cc3ccc(F)c(C(F)(F)F)c3)cccc2c1=O [Compound 348] |
| 7.19 | C[C@H](C(N)=O)n1ccc2c(NC(=O)Cc3ccc(C(F)(F)F)cc3C(F)(F)F)cccc2c1=O [Compound 380] |
| 7.88 | C[C@H](CO)n1ccc2c(NC(=O)Cc3ccc(Cl)c(F)c3)cccc2c1=O [Compound 330, 2-(4-Chloro-3-fluorophenyl)-N-[2-((R)-2-hydroxy-1-methyl-ethyl)-1-oxo-1,2-dihydro-isoquinolin-5-yl]-acetamide] |
| 7.60 | C[C@H](CO)n1ccc2c(NC(=O)Cc3ccc(C(F)(F)F)cc3)cccc2c1=O [Compound 319] |
| 6.59 | CC(C)(CO)n1ccc2c(NC(=O)Cc3ccc(Cl)c(F)c3)cccc2c1=O [Compound 373] |
| 7.56 | O=C(Cc1ccc(Cl)c(Cl)c1)Nc1cccc2c(=O)n(C(CO)CO)ccc12 [Compound 80] |
| 8.90 | C[C@H](C(N)=O)n1ccc2c(NC(=O)Cc3ccc(Cl)c(C(F)(F)F)c3)cccc2c1=O [Compound 238, (R)-2-{5-[2-(4-Chloro-3-trifluoromethyl-phenyl)-acetylamino]-1-oxo-1H-isoquinolin-2-yl}-propionamide] |
| 6.78 | CC(C)(CO)n1ccc2c(NC(=O)Cc3ccc(C(F)(F)F)cc3)cccc2c1=O [Compound 363] |
| < 6.00 | CC(C)C(C(=O)Nc1cccc2c(=O)n(CCO)ccc12)c1ccc(Cl)cc1 (stereo not drawn) [Compound 78] |
| 8.22 | C[C@H](C(N)=O)n1ccc2c(NC(=O)Cc3ccc(Cl)c(F)c3)cccc2c1=O [Compound 300] |
| 7.45 | O=C(Cc1ccc(Cl)c(C(F)(F)F)c1)Nc1cccc2c(=O)n(C[C@H]3CCCN3)ccc12 [Compound 243] |
| 7.93 | CC(C(=O)Nc1cccc2c(=O)n([C@@H](C)C(N)=O)ccc12)c1ccc(Cl)cc1 (stereo partly drawn) [Compound 240] |
| 6.98 | C[C@H](C(=O)Nc1cccc2c(=O)n([C@@H](C(N)=O)c3ccccc3)ccc12)c1ccc(Cl)cc1 [Compound 279, (S)—N-[2-((R)-Carbamoyl-phenyl-methyl)-1-oxo-1,2-dihydro-isoquinolin-5-yl]-2-(4-chloro-phenyl)-propionamide] |
| 7.81 | C[C@H](C(N)=O)n1ccc2c(NC(=O)Cc3ccc(F)c(F)c3)cccc2c1=O [Compound 303] |
| < 6.00 | O=C(CCc1cc(C(F)(F)F)cc(C(F)(F)F)c1)Nc1cccc2c(=O)n(CCO)ccc12 [Compound 61] |
| < 6.00 | O=C(Cc1cccc(C(F)(F)F)c1F)Nc1c(NCCO)ccc2c(=O)n(CCO)ccc12 [Compound 385, 2-(2-Fluoro-3-trifluoromethyl-phenyl)-N-[2-(2-hydroxy-ethyl)-6-(2-hydroxy-ethylamino)-1-oxo-1,2-dihydro-isoquinolin-5-yl]-acetamide] |
| 6.10 | CC(C)(CO)n1ccc2c(NC(=O)Cc3ccc(C(F)(F)F)cc3C(F)(F)F)cccc2c1=O [Compound 366] |

Continued, molecule first:

| SMILES | pIC50 |
| --- | --- |
| C[C@H](C(=O)Nc1cccc2c(=O)n([C@H](C)C(=O)NC3CC3)ccc12)c1ccc(Cl)cc1 [Compound 308, (R)-2-{5-[(S)-2-(4-Chloro-phenyl)-propionylamino]-1-oxo-1H-isoquinolin-2-yl}-N-cyclopropyl-propionamide] | 6.52 |
| CC(C)(CO)n1ccc2c(NC(=O)Cc3ccc(Cl)c(C(F)(F)F)c3)cccc2c1=O [Compound 369, 2-(4-Chloro-3-trifluoromethyl-phenyl)-N-[2-(2-hydroxy-1,1-dimethyl-ethyl)-1-oxo-1,2-dihydro-isoquinolin-5-yl]-acetamide] | 7.82 |
| CC(C)[C@H](C(=O)O)n1ccc2c(NC(=O)[C@@H](C)c3ccc(Cl)cc3)cccc2c1=O [Compound 323, (R)-2-{5-[(S)-2-(4-Chloro-phenyl)-propionylamino]-1-oxo-1H-isoquinolin-2-yl}-3-methyl-butyric acid] | 6.49 |
| C[C@H](C(=O)Nc1cccc2c(=O)n([C@@H](C)C(N)=O)ccc12)c1ccc(Cl)cc1 [Compound 265] | 7.82 |
| C[C@@H](C(N)=O)n1ccc2c(NC(=O)Cc3ccc(Cl)c(C(F)(F)F)c3)cccc2c1=O [Compound 353] | 7.53 |
| C[C@@H](C(N)=O)n1ccc2c(NC(=O)Cc3ccc(F)c(Cl)c3)cccc2c1=O [Compound 346] | 7.17 |
| CC(C)[C@H](C(=O)NC1CC1)n1ccc2c(NC(=O)[C@H](C)c3ccc(Cl)cc3)cccc2c1=O [Compound 282] | 7.47 |
| CC(C)(CO)n1ccc2c(NC(=O)Cc3ccc(F)c(Cl)c3)cccc2c1=O [Compound 372] | 6.38 |
| C[C@@H](C(N)=O)n1ccc2c(NC(=O)Cc3ccc(Cl)c(Cl)c3)cccc2c1=O [Compound 236, (S)-2-{5-[2-(3,4-Dichloro-phenyl)-acetylamino]-1-oxo-1H-isoquinolin-2-yl}-propionamide] | 7.33 |
| C[C@H](C(N)=O)n1ccc2c(NC(=O)Cc3ccc(-c4ccccc4)cc3)cccc2c1=O [Compound 289] | 7.28 |
| C[C@H](CO)n1ccc2c(NC(=O)Cc3ccc(Cl)c(Cl)c3)cccc2c1=O [Compound 333, 2-(3,4-Dichloro-phenyl)-N-[2-((R)-2-hydroxy-1-methyl-ethyl)-1-oxo-1,2-dihydro-isoquinolin-5-yl]-acetamide] | 9.00 |
| C[C@@H](C(=O)Nc1cccc2c(=O)n([C@@H](C)C(N)=O)ccc12)c1ccc(Cl)cc1 [Compound 266] | 7.41 |
| CNC(=O)[C@@H](CO)n1ccc2c(NC(=O)C(C)c3ccc(Cl)cc3)cccc2c1=O (stereo partly drawn) [Compound 261] | 6.73 |
| CC(C)C[C@H](CO)n1ccc2c(NC(=O)Cc3ccc(Cl)c(Cl)c3)cccc2c1=O [Compound 275] | 7.70 |
| C[C@@H](C(N)=O)n1ccc2c(NC(=O)Cc3ccc(Cl)nc3)cccc2c1=O [Compound 310] | < 6.00 |
| C[C@@H](CO)n1ccc2c(NC(=O)Cc3ccc(Cl)c(F)c3)cccc2c1=O [Compound 334] | 6.69 |
| C[C@H](C(N)=O)n1ccc2c(NC(=O)Cc3ccc(F)c(C(F)(F)F)c3)cccc2c1=O [Compound 304] | 8.23 |
| CC(C(=O)Nc1cccc2c(=O)n([C@H](CO)C(N)=O)ccc12)c1ccc(Cl)cc1 (stereo partly drawn) [Compound 252, (R)-2-{5-[2-(4-Chloro-phenyl)-propionylamino]-1-oxo-1H-isoquinolin-2-yl}-3-hydroxy-propionamide] | 6.79 |
| C[C@@H](CO)n1ccc2c(NC(=O)Cc3ccc(F)c(Cl)c3)cccc2c1=O [Compound 331] | 6.79 |
| O=C(Cc1ccc(C(F)(F)F)cc1)Nc1cccc2c(=O)n(CCO)ccc12 [Compound 7] | 6.54 |
| CNC(=O)[C@@H](C(C)C)n1ccc2c(NC(=O)[C@H](C)c3ccc(Cl)cc3)cccc2c1=O [Compound 277] | 7.09 |
| CC(C)[C@H](CO)n1ccc2c(NC(=O)[C@H](C)c3ccc(Cl)cc3)cccc2c1=O [Compound 273, (R)-2-(4-Chloro-phenyl)-N-[(R)-2-(1-hydroxymethyl-2-methyl-propyl)-1-oxo-1,2-dihydro-isoquinolin-5-yl]-propionamide] | 8.45 |
| C[C@H](C(N)=O)n1ccc2c(NC(=O)c3cccc4ncccc34)cccc2c1=O [Compound 272] | < 6.00 |
| O=C(Cc1cc(Cl)ccc1C(F)(F)F)Nc1cccc2c(=O)n(CCO)ccc12 [Compound 68] | 6.14 |
| COc1cccc(CC(=O)Nc2cccc3c(=O)n(CCO)ccc23)c1 [Compound 75] | < 6.00 |
| O=C(Nc1cccc2c(=O)n(CCO)ccc12)c1ccccc1 [Compound 1] | < 6.00 |
| CC(C(=O)Nc1cccc2c(=O)n([C@@H](C)C(N)=O)ccc12)c1cccc(C(F)(F)F)c1F (stereo partly drawn) [Compound 355] | 7.43 |

— patent US7816371B2, “Bicycloheteroaryl compounds as P2X7 modulators and uses thereof” (Renovis, Inc., priority 2006, dated 2010)
